Reference: ChEMBL document CHEMBL1141795, “Aspirochlorine class compounds from Aspergillus flavus inhibit azole-resistant Candida albicans” (J Nat Prod, 2005)

Assays:
[1] = tested on: CCRF-CEM; test: Cytotoxicity against human CEM cells after 96 hrs; format: functional, cell-based
[2] = tested on: Candida albicans; test: Antifungal activity against azole-resistant Candida albicans 99-788; format: functional, organism-based
[3] = in vitro; conditions: human
Description: Therapeutic index, IC50 for human CEM cells to IC 50 for azole-resistant Candida albicans 99-788

[4] = CEM cells (versus azole-resistant Candida albicans 99-788)

| SMILES | IC50 [1] | IC50 [2] | selectivity ratio ([3]; ccrf-cem) | selectivity ratio [3, 4] |
| --- | --- | --- | --- | --- |
| CC(C)C[C@@H]1C(=O)N[C@@H](Cc2c[nH]c3ccccc23)C(=O)N1C | > 31 µM | > 31 µM |  |  |
| C[C@@H]1[C@H](O)[C@@H](C)/C=C/C=C/C=C/C=C/C=C/C=C/C=C/[C@H](O[C@@H]2O[C@H](C)[C@@H](O)[C@H](N)[C@@H]2O)C[C@@H]2O[C@](O)(C[C@@H](O)C[C@@H](O)[C@H](O)CC[C@@H](O)C[C@@H](O)CC(=O)O[C@H]1C)C[C@H](O)[C@H]2C(=O)O [AMPHOTERICIN B] | 160 µM | 0.16 µM | 1000 |  |
| CON1C(=O)[C@H]2NC(=O)[C@]13Oc1cc(O)c(Cl)cc1[C@@H]3SS2 [ASPIROCHLORINE] | 0.58 µM | 0.028 µM |  | 20 |
| CN1C(=O)[C@]23CC4=CC=C[C@H](O)[C@H]4N2C(=O)[C@@]1(CO)SS3 [GLIOTOXIN] | 0.15 µM | 3.1 µM |  |  |
| COC1=CC(=O)C[C@@H](C)[C@]12Oc1c(Cl)c(OC)cc(OC)c1C2=O [GRISEOFULVIN] | 10 µM | > 28 µM |  |  |
| CON1C(=O)C2NC(=O)[C@@]13Oc1cc(O)c(Cl)cc1[C@@H]3SSSS2 [TETRATHIOASPIROCHLORINE] | 4.2 µM | 0.083 µM |  | 50 |
